Experimental data reported in article PMC5655689, “Therapeutic potential of the phosphino Cu(I) complex (HydroCuP) in the treatment of solid tumors” (Scientific Reports, 2017).
Where “and” joins values, the source holds several entries; their conditions need not be identical. Identical values can stand only once.

Columns and labels:
[1] = system: DRG explants from 15 day-embryonic Sprague-Dawley rats; assay: Neurotoxicity: neurite elongation in DRG explants; settings: 48 h, DRG explants with NGF; for Neurotoxic effect (neurite elongation): OXP 5, 7.5, 10 μM, HydroCuP 5, 10, 20 μM
Method: To investigate the potential neurotoxic effect of HydroCuP, we employed a well-established in vitro model based on organotypic cultures of DRG from 15-day-old rat embryos. Neurite elongation under NGF influence was evaluated in DRG explants. […] For comparison purposes, the effect induced by the reference drugs OXP and CDDP was also tested.
OXP and HydroCuP toxicity at 48 h in DRG explants from 15 day-embryonic Sprague-Dawley rats. Representative images of neurite length in maturing DRG explants with different concentrations of OXP and HydroCuP (A). Bar: 500 µm.
DRG from E15 Sprague-Dawley rats (Envigo, San Pietro al Natisone, Italy) were aseptically removed and cultured onto a single layer of rat tail collagen surfaces in 35-mm dishes as previously described[36].
The DRG were incubated in AN2 medium [MEM added with 1.4 mM L-glutamine (Euroclone, Pero, Italy), 10% calf bovine serum (Hyclone, Thermo Scientific, Logan, UT) 50 µg/ml ascorbic acid, 0.6% glucose (Sigma-Aldrich) in the presence of 5 ng/ml nerve growth factor (NGF; Life Technologies, Monza, Italy) in a 5% CO2 humidified incubator at 37 °C.
To evaluate the neurotoxicity of HydroCuP and OXP, the DRG explants were treated for 2 h with NGF and subsequently exposed to each drug at different concentrations for 48 h. OXP was tested at 5, 7.5 and 10 μM while 5, 10 and 20 μM of HydroCuP was used. DRG treated with AN2 medium supplemented with 5 ng/ml NGF alone were used as controls. Phase-contrast micrographs were taken, and the length of the longest neurite in each DRG was measured by Image J (NIH, Bethesda, MD), using a standard calibration grating photographed at the same magnification. A compound is considered neurotoxic when the mean neurite elongation is reduced by 50% or more after drug exposure vs control.

[2] = system: LoVo human colon cancer spheroids; assay: 3D spheroid cell viability, acid phosphatase (APH) assay, LoVo; format: cell-based; settings: 72 h, APH test, read-out: IC50 (μM) ± SD LoVo
Method: (§1) In order to improve the predictive capacity of the in vitro assays, we tested HydroCuP activity in two 3D cell cultures of human colon cancer cells, HCT-15 and LoVo. The colon cancer spheroids were treated with HydroCuP for 72 h and the cell viability was assessed by means of the acid phosphatase (APH) assay (Fig. 1, panel A).
(§2) Figure 1 Activity in 3D cell cultures. (A) Spheroids (2.5 × 10^3 cells/well) were treated for 72 h with increasing concentrations of tested compounds. The growth inhibitory effect was evaluated by means of APH test. IC50 values were calculated from the dose-survival curves by four parameter logistic model (P < 0.05). SD = standard deviation.
(§3) Spheroids were initiated in liquid overlay by seeding 2.5 × 10^3 HCT-15 and LoVo cells/well in phenol red-free RPMI-1640 medium (Sigma Chemical Co.), containing 10% FCS and supplemented with 20% methyl cellulose stock solution. A total of 150 μl of this cell suspension was transferred to each well of a round bottom non-tissue culture treated 96 well-plate (Greiner Bio-one, Kremsmünster, Austria) to allow spheroid formation within 72 h.
(§4) A modified APH assay, which is based on quantification of cytosolic acid phosphatase activity, was used for determining cell viability in spheroids. Briefly, the pre-seeded spheroids were treated with fresh medium containing the compound to be studied at the appropriate concentration (range 5–150 μM). Triplicate cultures were established for each treatment. After 72 h, each well was treated with 100 μL of the assay buffer (0.1 M sodium acetate, 0.1% Triton-X-100, supplemented with ImmunoPure p-nitrophenyl phosphate; Sigma Chemical Co.) and, following 3 h of incubation, 10 μL of 1 M NaOH solution were added. The inhibition of the cell growth induced by the tested complexes was detected by measuring the absorbance of each well at 405 nm, using a Bio-Rad 680 microplate reader. Mean absorbance for each drug dose was expressed as a percentage of the control untreated well absorbance (T/C) and plotted vs drug concentration. IC50 values, the drug concentrations that reduce the mean absorbance at 405 nm 50% of those in the untreated control wells, were calculated by four-parameter logistic (4-PL) model. Evaluation was based on means from at least four independent experiments.

[3] = system: HCT-15 human colon cancer spheroids; assay: 3D spheroid cell viability, acid phosphatase (APH) assay, HCT-15; format: cell-based; settings: HCT-15 spheroids, 72 h, APH test; read-out: IC50 (μM) ± SD HCT-15
Method: as §1, §2, §3, §4

[4] = system: LoVo colorectal oxaliplatin-sensitive xenograft; assay: In vivo activity toward LoVo (OXP-sensitive) tumor xenograft in BALB/c nu/nu mice
Method: (§5) To this aim, we developed the OXP-sensitive and OXP-resistant LoVo xenografts in BALB/c nu/nu mice. […] OXP-sensitive or OXP-resistant LoVo cells (1 × 10^7) were injected in the flank of mice. Once tumor was established (tumor volumes of about 0.4 cm^3, around 14 days after tumor inoculation), mice were randomly divided into six groups (6 animals per group, 8 controls). The HydroCuP-treated groups (6 mice each group) received daily 30 mg/kg by i.p. injection and the OXP-treated group was given 2 mg/kg by i.p. injection. At day 30, animals were sacrificed, and the inhibition of tumor growth was determined (Fig. 4, panel A). Measurements of body weights were recorded from day 14 every 2 days until the experimental endpoint (Fig. 4, panel B).
(§6) (A) LoVo and LoVo-OXP tumor xenografts in 6-week-old BALB/c nu/nu mice by injecting 1 × 10^7 tumor cells subcutaneously on the left dorsal flank. After 24 h from tumor implantation, mice randomly divided into six groups (6 animals per group). Chemotherapy delayed until day 14 (tumor volumes of about 0.4 cm^3). From day 14, HydroCuP dosed daily at 30 mg/kg i.p., OXP dosed daily at 2 mg/kg i.p. At day 30, animals sacrificed, and the inhibition of tumor growth determined by comparing the volume of the control group and the treatment group expressed as percentage referred to the control animals. Error bars indicate the S.D. *p < 0.05, **p < 0.01, with respect to control. […] Body weight was measured every two days and was taken as a parameter of systemic toxicity. The error bars indicate the S.D. **P < 0.01; *P < 0.05.
(§7) LoVo and LoVo-OXP tumor xenografts were established in 6-week-old BALB/c nu/nu mice by injecting 1 × 10^7 tumor cells subcutaneously (100 μL in serum free medium) on the left dorsal flank. After 24 h from tumor implantation, mice were randomly divided into six groups (6 animals per group, 8 controls). Chemotherapy was delayed until the tumor was about 0.4 cm^3 (day 14). From day 14, HydroCuP was dosed daily at 30 mg/kg i.p. whereas OXP was dosed daily at 2 mg/kg i.p. Measurements of body weights and tumor volumes were recorded from day 14 every 2 days until the experimental endpoint. The long axis (L) and the short axis (S) were measured with callipers, and the tumor volume (V) was calculated using the following equation: V = SxSxL/2. At day 30, animals were sacrificed, and the inhibition of tumor growth was determined by comparing the volume of the control group and the treatment group expressed as percentage referred to the control animals.

[5] = patients, reported by the Food and Drug Administration; cited from earlier work
[6] = system: LoVo colorectal oxaliplatin-resistant xenograft; assay: In vivo activity toward LoVo-OXP (OXP-resistant) tumor xenograft in BALB/c nu/nu mice
Method: as §5, §6, §7

[7] = Nephrotoxicity: urinary biomarkers (uTP, NAG) in Sprague Dawley rats; format: in vivo, rat; settings: single i.p. 1.5 mg/kg, urine 24, 72, 120 h
Method: Figure 5 Neurotoxicity studies. […] Bar: 500 µm. […] Nephrotoxicity studies. […] Error bars indicate the S.D. The potential nephrotoxic effect of HydroCuP was evaluated by measuring some specific biomarkers in urines obtained from 8-week-old male Sprague Dawley rats treated with a single i.p. injection of HydroCuP and CDDP. Urines of the treated animals were collected after 24, 72 and 120 h, and urinary total protein (uTP) and N-acetyl-β-D-glucosaminidase (NAG) were evaluated as signs of nephrotoxicity. […] On the contrary, treatment with HydroCuP determined a 24 h excretion of uTP roughly 12 times lower than that recorded with CDDP (Fig. 5, panel D). Following 120 h, the levels of uTP excreted by HydroCuP were 11 times lower compared with the reference metallodrug. Eight-week-old male Sprague Dawley rats were randomly allocated to five groups (five animals per group) and treated with a single i.p. injection of HydroCuP (50 mg/kg) or the vehicle solution (0.2 mL saline solution, control). Cisplatin (1.5 mg/kg,) was also used under the same experimental conditions for comparison purposes. […] Later, urines were centrifuged (150 g for 10 minutes at room temperature) to discard debris and aliquoted to measure creatinine, uTP and NAG. Urine creatinine assays were performed using creatinine assay kit from Sigma Chemical Co. (St. Louis, MO). uTPs were measured by means of BioRad Total Protein Test (Hercules, CA). Urinary NAG was measured spectrophotometrically with the NAG kit (Roche diagnostics, Basel, Switzerland) according to the manufacturer’s protocols. uTP and NAG are expressed as grams per millimoles of creatinine (g mmol^−1 creatinine).

[8] = system: Lewis Lung Carcinoma (LLC); assay: In vivo antitumor activity towards Lewis Lung Carcinoma (LLC) implanted i.m. in C57BL mice; design: species or system mouse; settings: for Average tumor weight (mean ± S.D., g) / Inhibition of tumor growth (%): day 15; for Body weight changes: LLC-bearing C57BL mice
Method: The schedule of HydroCuP administration in vivo was initially determined by assessing the total dose that could be injected without undue toxicity for different schedules in nontumor-bearing C57BL mice (data not shown). […] Three schedules of i.p. HydroCuP were administered: early treatment (days 3, 5, 7 and 9 after tumor inoculum), intermediate treatment (days 7–14) and late treatment with split-doses (days 9–11 with a loading dose and days 12–14 with a lower maintenance dose). […] Cisplatin treatment schedule was selected according to standard protocols designed to optimize its efficacy and minimize the occurrence of adverse events. For the early treatment, control mice received the vehicle (0.9% NaCl). HydroCuP was dosed at 25, 35 and 50 mg/kg i.p. on days 3, 5, 7, 9, 11 and 13 after tumor implantation. Cisplatin was dosed at 1.5 mg/kg i.p. on days 3, 5, 7, 9, 11 and 13 after tumor implantation.
The mice were purchased from Charles River, Italy, housed in steel cages under controlled environmental conditions (constant temperature, humidity, and 12 h dark/light cycle), and alimented with commercial standard feed and tap water ad libitum. The LLC cell line was purchased from ECACC, United Kingdom. The LLC cell line was maintained in DMEM (Euroclone, Pero, Italy) supplemented with 10% heat-inactivated foetal bovine serum (Euroclone, Pero, Italy), 10 mM L-glutamine, 100 U/mL penicillin, and 100 µg/mL streptomycin in a 5% CO2 air incubator at 37 °C. The LLC was implanted intramuscularly (i.m.) as a 2 × 10^6 cell inoculum into the right hind leg of 8-week old male and female C57BL mice (24 ± 3 g body weight). The antitumor activity of HydroCuP in LLC tumor model has been investigated by means of different schedules (early treatment, intermediate treatment and late treatment) and compared with that promoted by the reference metallodrug, CDDP. In the early-stage treatment, animals were treated at day 3, 5, 7, 9, 11 and 13 after the tumor cell inoculum with an i.p. injection of HydroCuP (25, 35 and 50 mg/kg), CDDP (1.5 mg/kg) or the vehicle solution (0.9% NaCl).
In the intermediate treatment, animals were treated after 7 days from tumor implantation (visible tumor) with daily i.p. doses of HydroCuP (30 and 50 mg/kg), CDDP (1.5 mg/kg) or the vehicle solution (0.9% NaCl). In the late treatment, animals were treated after 9 days from tumor implantation (palpable tumor) with i.p. doses of HydroCuP (50 mg/kg) from day 9 to day 11 and with i.p. doses of HydroCuP (30 mg/kg) from day 12 to day 14, or with daily doses of CDDP (1.5 mg/kg) or with the vehicle solution (0.9% NaCl). At day 15, animals were sacrificed, the legs were amputated at the proximal end of the femur, and the inhibition of tumor growth was determined according to the difference in weight of the tumor-bearing leg and the healthy leg of the animals expressed as a percentage referring to the control animals. Body weight was measured every 2 days and was taken as a parameter for systemic toxicity.

[9] = design: method as in PMID 24035926; settings: patients under cisplatin treatment; cited from earlier work
[10] = 2 mg/kg daily i.p. from day 14, day 30
[11] = Early treatment, 1.5 mg/kg i.p. days 3, 5, 7, 9, 11, 13

SMILES | Reduction of neurite length ([1]; 7.5 µM) [%] | Neurotoxic effect (neurite elongation) [1] | IC50 [2] [µM] | IC50 [3] [µM] | Body weight loss ([4]; 2 mg/kg daily i.p.) | Inhibition of tumor growth [4, 10] | Rate of symptomatic neurotoxicity with any severity [5] | Body weight loss ([6]; 2 mg/kg daily i.p.) | Inhibition of tumor growth [6, 10] [%] | NAG [7] | uTP excretion [7] | Average tumor weight (mean ± S.D., g) [8, 11] [g] | Inhibition of tumor growth (%) [8, 11] [%] | Body weight changes ([8]; Early treatment, 15 days) | Average tumor weight (mean ± S.D., g) ([8]; Intermediate treatment, 1.5 mg/kg daily i.p. day 7-14) [g] | Inhibition of tumor growth (%) ([8]; Intermediate treatment, 1.5 mg/kg daily i.p. day 7-14, 1.5 mg/kg) | Body weight changes ([8]; Intermediate treatment) | Average tumor weight (mean ± S.D., g) ([8]; Late treatment, 1.5 mg/kg daily i.p. from day 9) [g] | Inhibition of tumor growth (%) ([8]; Late treatment, 1.5 mg/kg daily i.p. from day 9, 1.5 mg/kg) | Patients with irreversible renal damage [9]
O=C1[O][Pt]2([NH][C@@H]3CCCC[C@H]3[NH]2)[O]C1=O [OXP, oxaliplatin] | 50 | significantly reduced neurite elongation in a dose-dependent manner | 22.2 ± 4.75 | 30.2 ± 2.34 | about 23% | about 55% | more than 70% | about 23% | 20 |  |  |  |  |  |  |  |  |  |  | 
[NH2][Pt]([NH2])([Cl])[Cl] [CDDP, cisplatin, reference compound] |  | significantly reduced neurite elongation in a dose-dependent manner | 60.6 ± 6.28 | 68.2 ± 4.58 |  |  |  |  |  | significant increase | significant increase of uTP excretion | 0.168 ± 0.10 | 73.66 | substantial weight loss | 0.061 ± 0.03 | 87% and 87.84% | elevated weight loss | 0.118 ± 0.10 | 73% and 72.68% | about one-third
